Experimental data from patent US9061029B2, “Method of treating proliferative disorders and other pathological conditions mediated by Bcr-Abl, c-Kit, DDR1, DDR2 or PDGF-R kinase activity” (Novartis AG, priority 2009, dated 2015).
Like-named read-outs stand apart in the source and are kept apart here.

Columns and labels:
[1] = administration of nilotinib in a fruit preparation, human subjects
Procedure: All treatments were administered with 240 mL of water, in the morning, after an overnight fast of at least 10 hours. Subjects continued to fast until 4 hours after administration. […] Consumption of grapefruit, grapefruit juice, or any caffeinated beverages within 48 hours of study initiation was prohibited.
At each time point, 2.5 mL of whole blood was drawn using a Serum Separator Vacutainer® (Becton, Dickinson and Company, Franklin Lakes, N.J., USA) tube. The tube was allowed to stand vertically at room temperature for 30 minutes prior to centrifugation at 5° C. for 10 minutes at 1100 g. Immediately after centrifugation, the upper serum sample was transferred and stored frozen at ≦−15° C. until shipped to the analytical site for sample analyses.
The MTBE layer was transferred, evaporated to dryness, and reconstituted with 400 μl of an acetonitrile and 0.2% formic acid mixture (40:60, v/v). Chromatography was carried out using a Phenomenex Synergi™ Polar-RP column (particle size 4 μm, 50 mm×2 mm i.d.) (Phenomenex, Inc, Torrance, Calif.) held at room temperature. Elution of the analytes was performed using a isocratic elution at a flow rate of 0.5 mL/min with mobile phases of 0.2% formic acid in 10 mM aqueous ammonium formate: 0.2% formic acid in acetonitrile (60:40, v/v).

[2] = 400 mg oral capsule, cited from earlier work
[3] = concurrent intake of grapefruit juice; cited from earlier work
[4] = light breakfast given 30 minutes prior to dosing

For Cc1cn(-c2cc(NC(=O)c3ccc(C)c(Nc4nccc(-c5cccnc5)n4)c3)cc(C(F)(F)F)c2)cn1 [nilotinib, 4-methyl-3-[[4-(3-pyridinyl)-2-pyrimidinyl]amino]-N-[5-(4-methyl-1H-imidazol-1-yl)-3-(trifluoromethyl)-phenyl]benzamide], the safety and tolerability [1] is given as “safe and well tolerated”, the “increase in Cmax” value ([2]; after a high fat breakfast) is given as 112% and the “increase in total exposure (AUC0-t)” value ([2]; after a high fat breakfast) is given as 82%. For the same compound, the “increase in Cmax” value [2, 4] was 55%, the “increase in total exposure (AUC0-t)” value [2, 4] was 29% and the AUC increase [3] was 29%. For the same compound, the Cmax increase [3] was 60%.
